According to US6868215B2, “Dye thin film, production method thereof, optical switch, optical distributor, optical modulator and optical switch array” (Fuji Xerox Co., Ltd., priority 2002, dated 2005):

Experiment: thermal stability: thermal decomposition temperature by thermogravimetry and differential thermal analysis
Type: physicochemical
Procedure: For the absorption characteristic, absorption spectra were measured by using a near infrared photospectrometer. Further, for the thermal stability, the thermal decomposition temperature was measured by thermogravimetry and differential thermal analysis. Further, the solubility in organic solvents such as chloroform or acetone was confirmed.

CC(C)CN(CC(C)C)c1cc(O)c2c(c1)OC(=O)/C2=C(/[O-])C1=C2C(O)=CC(=[N+](CC(C)C)CC(C)C)C=C2OC1=O [compound (1)]
decomposition temperature: 202.7 °C
